Here are results for 27 compounds from patent publication US11999697B2, “Methods and compositions for inhibition of dihydroorotate dehydrogenase” (OHIO STATE INNOVATION FOUNDATION, priority 2018, dated 2024).

Holding throughout (format): cell-based
For one series, the system named is OCI-AML3. The experiment in a line: MTS cell proliferation assay, OCI-AML3. The conditions noted are these: Homo sapiens. On the procedure: (§1) Triplicate wells were set up for each condition.
(§2) The assays were carried out in a blinded fashion.

Another series deals with HL-60. The experiment in a line: MTS cell proliferation assay, HL-60. The conditions noted are these: Homo sapiens, 96 hours. The method, then: as §1, §2
For orientation: Tetrazolium dyes change colour on reduction, which living cells bring about.

Another series relates to THP1. Description: MTS cell proliferation assay, THP1. The conditions noted are these: Homo sapiens, THP-1, 96 hours. On the procedure:
as §1, §2

A further series relates to MV4-11. The experiment in a line: MTS cell proliferation assay, MV4-11. The conditions noted are these: for IC50: Homo sapiens, MV4-11, MTS.
In the next series the test system is MOLM-13. Description: MTS cell proliferation assay, MOLM-13. The conditions noted are these: Homo sapiens, 96 hours. The method, then:
as §1, §2

Setting [1] is: OCI-AML-3, 96 hour, Table 6, read-out: 96 hour IC50 (nM) in OCI-AML-3 cell line.
[2] abbreviates: 96 hours, read-out: IC50 (μM) at 96 hours, MV4-11.
The mark [3] stands for this setting: OCI-AML-3, 96 hours, read-out: IC50 (μM) at 96 hours, OCI-AML3.
Where [4] appears, read: 96 hour, Table 7, read-out: 96 hour IC50 (nM) in MV-411 cell line.

Read-outs that look alike come from different tables or passages of the source.

In the case of `CC(C)Oc1ccc(-c2ccc(-c3cc(C(=O)O)c4cc(F)ccc4n3)cc2)cc1` [Cpd25, 6-fluoro-2-(4′-isopropoxy-[1,1′-biphenyl]-4-yl)quinoline-4-carboxylic acid], in the series on OCI-AML3 (setting [1]), the IC50 turned out to be 67.6 nM. `COc1ccc(-c2ccc(-c3cc(C(=O)O)c4cccc(F)c4n3)cc2)cc1` [Cpd8, 8-fluoro-2-(4′-methoxy-[1,1′-biphenyl]-4-yl)quinoline-4-carboxylic acid]: the IC50 with HL-60 worked out at 3.57 µM; in the series on THP1 it was 11.6 µM; in the series with MV4-11 (setting [2]), 7.54 µM; with MOLM-13 it was 6.76 µM; in the series on OCI-AML3 (setting [3]), 4990 nM. For `CC(C)COc1ccc(-c2ccc(-c3cc(C(=O)O)c4cc(F)ccc4n3)cc2)cc1` [Cpd26, 6-fluoro-2-(4′-isobutoxy-[1,1′-biphenyl]-4-yl)quinoline-4-carboxylic acid], the IC50 with OCI-AML3 (setting [1]) was determined as 89.3 nM.

For the compound `O=C(O)c1cc(-c2ccc(-c3ccccc3F)cc2)nc2ccc(F)cc12` [Cpd24, 6-fluoro-2-(2'-fluoro-[1,1′-biphenyl]-4-yl)quinoline-4-carboxylic acid], the IC50 in the series on OCI-AML3 (setting [1]) was 49.5 nM. In the case of `CCCCCOc1ccc(-c2ccc(-c3cc(C(=O)O)c4cc(F)ccc4n3)cc2)cc1` [Cpd29, 6-fluoro-2-(4′-(pentyloxy)-[1,1′-biphenyl]-4-yl)quinoline-4-carboxylic acid], in the series with OCI-AML3 (setting [1]), the IC50 came to 72.9 nM. The same measure, in the same setting: as for `CCCCCCCCOc1ccc(-c2ccc(-c3cc(C(=O)O)c4cc(F)ccc4n3)cc2)cc1` [Cpd31, 6-fluoro-2-(4′-(octyloxy)-[1,1′-biphenyl]-4-yl)quinoline-4-carboxylic acid], the figure is 175 nM. In the case of `CCCCOc1ccc(-c2ccc(-c3cc(C(=O)O)c4cc(F)ccc4n3)cc2)cc1` [Cpd22, 2-(4′-butoxy-[1,1′-biphenyl]-4-yl)-6-fluoroquinoline-4-carboxylic acid], the results for the IC50 in the series with MV4-11 (setting [4]) and in the series with OCI-AML3 (setting [1]) were 0.036 µM and 155 nM, respectively. For the compound `CC1=C(/C=C/C(C)=C/C=C/C(C)=C/C(=O)O)C(C)(C)CCC1` [ATRA, all-trans-retinoic acid, reference compound], the values for the IC50 in the series with MOLM-13 and in the series on OCI-AML3 (setting [3]) were 3.06 µM and 90 nM, respectively.

As to `CCOc1cccc(-c2ccc(-c3cc(C(=O)O)c4cc(F)ccc4n3)cc2)c1` [Cpd28, 2-(3′-ethoxy-[1,1′-biphenyl]-4-yl)-6-fluoroquinoline-4-carboxylic acid], the IC50 with OCI-AML3 (setting [1]) is 20.9 nM. As for `Cc1c(-c2ccc(-c3ccc(F)cc3)cc2)nc2ccc(F)cc2c1C(=O)O` [Cpd18, 6-fluoro-2-(4′-fluoro-[1,1′-biphenyl]-4-yl)-3-methylquinoline-4-carboxylic acid], the IC50 with HL-60 was 2.4 µM; in the series with THP1, 9.34 µM; with MV4-11 (setting [2]), 6.86 µM; in the series with MOLM-13, 6.76 µM; with OCI-AML3 (setting [3]), 4010 nM. `COc1ccc(-c2ccc(-c3cc(C(=O)O)c4cc(F)ccc4n3)cc2)cc1` [Cpd20, 6-fluoro-2-(4′-methoxy-[1,1′-biphenyl]-4-yl)quinoline-4-carboxylic acid]: the concentration for half-maximal inhibition (IC50) with MV4-11 (setting [4]) was 0.69 µM.

With `CCCCCCOc1ccc(-c2ccc(-c3cc(C(=O)O)c4cc(F)ccc4n3)cc2)cc1` [Cpd30, 6-fluoro-2-(4′-(hexyloxy)-[1,1′-biphenyl]-4-yl)quinoline-4-carboxylic acid], in the series on OCI-AML3 (setting [1]), the IC50 was found to be 76.1 nM. With `CC(C)(C)Oc1ccc(-c2ccc(-c3cc(C(=O)O)c4cc(F)ccc4n3)cc2)cc1` [Cpd32, 2-(4′-(tert-butoxy)-[1,1′-biphenyl]-4-yl)-6-fluoroquinoline-4-carboxylic acid], the IC50 in the series on OCI-AML3 (setting [1]) was 50.3 nM. Take `CCOc1ccc(-c2ccc(-c3cc(C(=O)O)c4cccc(F)c4n3)cc2)cc1` [Cpd16, 2-(4′-ethoxy-[1,1′-biphenyl]-4-yl)-8-fluoroquinoline-4-carboxylic acid]: the IC50 with HL-60 is 1.69 µM; in the series with THP1, 6.7 µM; in the series on MV4-11 (setting [2]), 6.23 µM; in the series on MOLM-13, 3.42 µM; in the series with OCI-AML3 (setting [3]) it was 2900 nM.

In the case of `CC(C)CCOc1ccc(-c2ccc(-c3cc(C(=O)O)c4cc(F)ccc4n3)cc2)cc1` [Cpd33, 6-fluoro-2-(4′-(isopentyloxy)-[1,1′-biphenyl]-4-yl)quinoline-4-carboxylic acid], the IC50 in the series on OCI-AML3 (setting [1]) was 74.6 nM.

As for `Cc1c(-c2ccc(-c3ccccc3F)cc2)nc2ccc(F)cc2c1C(=O)O` [Brequinar, 6-fluoro-2-(2′-fluoro-1,1′-biphenyl-4-yl)-3-methyl-4-quinolinecarboxylic acid, reference compound], the “rescue of cytotoxic effects by uridine” value in the series with MV4-11 (0.25 or 0.5 μM compound, uridine 0 to 200 μM, 96 hours) was “rescued by growth in the presence of uridine”. The IC50 in the series on OCI-AML3 (setting [1]) stood at 314 nM. With `CCCOc1ccc(-c2ccc(-c3cc(C(=O)O)c4cc(F)ccc4n3)cc2)cc1` [Cpd21, 6-fluoro-2-(4′-propoxy-[1,1′-biphenyl]-4-yl)quinoline-4-carboxylic acid], the IC50 in the series with MV4-11 (setting [4]) turned out to be 0.06 µM. With `CCOc1ccc(-c2ccc(-c3cc(C(=O)O)c4cc(F)ccc4n3)cc2)c(F)c1` [Cpd35, 2-(4′-ethoxy-2′-fluoro-[1,1′-biphenyl]-4-yl)-6-fluoroquinoline-4-carboxylic acid], the half-maximal inhibitory concentration (IC50) with OCI-AML3 (setting [1]) was determined as 87.7 nM. Turning to `Cc1c(-c2ccc(-c3ccccc3F)cc2)nc2ccc(F)cc2c1C(=O)O` [BQR•Na, reference compound], the IC50 amounted to 0.23 µM in the series on HL-60; 1 µM with THP1; 0.49 µM in the series on MV4-11 (setting [2]); 0.48 µM in the series with MOLM-13; 400 nM in the series with OCI-AML3 (setting [3]).

`CCOc1ccc(-c2ccc(-c3cc(C(=O)O)c4cc(C(F)(F)F)ccc4n3)cc2)cc1` [Cpd36, 2-(4′-ethoxy-[1,1′-biphenyl]-4-yl)-6-(trifluoromethyl)quinoline-4-carboxylic acid]: the IC50 in the series with OCI-AML3 (setting [1]) is 330 nM. Regarding `O=C(O)c1cc(-c2ccc(-c3ccc(Oc4ccccc4)cc3)cc2)nc2ccc(F)cc12` [Cpd40, 6-fluoro-2-(4′-phenoxy-[1,1′-biphenyl]-4-yl)quinoline-4-carboxylic acid], the IC50 in the series with MV4-11 (setting [4]) came out at 0.067 µM. Consider `CCCCCCCOc1ccc(-c2ccc(-c3cc(C(=O)O)c4cc(F)ccc4n3)cc2)cc1` [Cpd23, 6-fluoro-2-(4′-(heptyloxy)-[1,1′-biphenyl]-4-yl)quinoline-4-carboxylic acid], for which the IC50 in the series with MV4-11 (setting [4]) was 0.018 µM; in the series on OCI-AML3 (setting [1]), 90.5 nM. As for `COCc1ccccc1-c1ccc(-c2cc(C(=O)O)c3cc(F)ccc3n2)cc1` [Cpd39, 6-fluoro-2-(2'-(methoxymethyl)-[1,1′-biphenyl]-4-yl) quinoline-4-carboxylic acid], the IC50 in the series with OCI-AML3 (setting [1]) is 96.4 nM. Still for that read-out and setting: as for `COCc1cccc(-c2ccc(-c3cc(C(=O)O)c4cc(F)ccc4n3)cc2)c1` [Cpd37, 6-fluoro-2-(3′-(methoxymethyl)-[1,1′-biphenyl]-4-yl)quinoline-4-carboxylic acid], the figure is 864 nM.

For the compound `Cc1c(-c2ccc(-c3ccc(F)cc3F)cc2)nc2c(F)cccc2c1C(=O)O` [Cpd14, 2-(2′,4′-difluoro-[1,1′-biphenyl]-4-yl)-8-fluoro-3-methylquinoline-4-carboxylic acid], the IC50 in the series on HL-60 came to 9.48 µM; in the series on THP1 it was 21.4 µM; in the series on MV4-11 (setting [2]) it was 14 µM; in the series on MOLM-13, 8.63 µM; in the series with OCI-AML3 (setting [3]), 11200 nM. As to `COCc1ccc(-c2ccc(-c3cc(C(=O)O)c4cc(F)ccc4n3)cc2)cc1` [Cpd38, 6-fluoro-2-(4′-(methoxymethyl)-[1,1′-biphenyl]-4-yl)quinoline-4-carboxylic acid], the IC50 in the series on OCI-AML3 (setting [1]) was 1060 nM. Same read-out and setting: as for `CCOc1ccccc1-c1ccc(-c2cc(C(=O)O)c3cc(F)ccc3n2)cc1` [Cpd27, 2-(2′-ethoxy-[1,1′-biphenyl]-4-yl)-6-fluoroquinoline-4-carboxylic acid], the figure is 637 nM.

What is called IC50 is the concentration at which inhibition is half-maximal.
